The values that follow come from patent publication US5317015A, “Azacyclic bisphosphonates as anticholesterolemic agents” (Rhone-Poulenc Rorer Pharmaceuticals Inc., priority 1992, dated 1994).

Broadly, the IC50 is the midpoint of a concentration-inhibition curve.

Each structure is given as a SMILES string.

One assay deals with T1, squalene synthetase (Rattus norvegicus, UniProt Q02769).
T1 construct: The brown outer microsomal layer is carefully removed with a spatula and placed in a beaker on ice; from tissue; host or cells: liver microsomes of male Sprague-Dawley rats (105,000 g pellet, washed, not purified)
T1 sequence (Q02769 1-416): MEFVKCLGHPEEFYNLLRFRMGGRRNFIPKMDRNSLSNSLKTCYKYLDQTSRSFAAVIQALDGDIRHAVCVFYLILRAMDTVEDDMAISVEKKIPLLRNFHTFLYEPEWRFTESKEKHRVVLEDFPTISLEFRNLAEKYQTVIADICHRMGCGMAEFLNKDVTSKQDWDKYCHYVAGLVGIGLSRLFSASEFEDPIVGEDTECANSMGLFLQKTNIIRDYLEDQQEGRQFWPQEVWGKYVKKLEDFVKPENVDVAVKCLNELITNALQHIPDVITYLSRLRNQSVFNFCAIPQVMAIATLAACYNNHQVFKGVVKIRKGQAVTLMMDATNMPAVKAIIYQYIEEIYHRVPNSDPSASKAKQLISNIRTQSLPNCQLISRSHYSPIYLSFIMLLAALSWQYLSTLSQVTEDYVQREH
As to the kind of experiment: Squalene Synthetase Inhibition Assay (SQ SYN). The conditions noted are these: rat liver microsomes, 10 μM 3H-FPP, 0.5 mM β-NADPH, pH 7.5, 10 min preincubation and 10 min incubation, 37° C. The format is biochemical, rat (Sprague-Dawley). From the text: These tests involve such factors as the effect of the compounds of Formula I to inhibit squalene synthesis.
Squalene Synthetase Inhibition Assay
The squalene synthetase assay used is a modification of the procedures described by Popjak (1969) and Poulter et al. (1989):
Popjak, G. Enzymes of sterol biosynthesis in liver and intermediates of sterol biosynthesis. Meth. Enzymol. 15: 393-454, 1969.
Poulter, C. D., Capson, T. L., Thompson, M. D. and Bard R. S. Squalene synthetase. Inhibition by ammonium analogues of carbocationic intermediates in the conversion of presqualene diphosphate to squalene. J. Am. Chem. Soc. 111: 3734-3739, 1989.
I. Animal Source and Tissue Preparation
Four male Sprague-Dawley rats weighing 100-120 gms are fed a low cholesterol rodent diet (#5012) obtained from Purina Mills, Inc. in Richmond, Ind.; and housed under reverse-light. Water is given ad lib. Rats are lightly anesthetized with ether and then decapitated. Livers are removed and enzymes are separated by the method described below.
All Chemicals are "A.C.S." in purity or better unless noted;
AquaSol®-2 scintillation fluid (NEF-952) (Du Pont/NEN Research Products, Boston, Mass.);
Anhydrous MgCl2 (M-8266), β-NADPH tetrasodium salt, reduced form (N-1630), Bovine serum albumin (A-6003), Cholesterol (C-8503);
Squalene (S-3626), (Sigma Chemical Co., St. Louis, Mo.);
Bio-Rad protein assay dye concentrate (Bio-Rad Laboratories, Richmond, Calif.);
Denatured ethanol, DMSO, HCl (1N), KOH, methanol, NaOH (0.1N, 1N), petroleum ether (M-280 grade), potassium phosphate dibasic, 2-propanol (Fisher Scientific, Pittsburgh, Pa.);
Zero grade nitrogen gas mixture (certified analysis) (Woodland Oxygen & Supply Co., Philadelphia, Pa.).
[1-^3 H(N)]-FPP, triammonium salt (NET-1042), (Du Pont/NEN, Boston, Mass.);
Non-radiolabeled FPP is prepared in-house. The solid FPP is aliquoted and stored at -80° C. FPP is dissolved in 70% ethanol/30% 0.25M NH4 HCO3 at the concentration of 10 mM and the solution is aliquoted (200 μl each) and stored at -80° C.
III. Preparation of Assay Substances
Test solutions are prepared fresh in 100% DMSO or dH2 O. Subsequent dilutions are made in the same solvent. Compounds are tested initially at 1 or 10 μM (final concentrations).
Potassium phosphate (50 mM, 8.71 g/l) pH 7.5 stock buffer is prepared and stored at 4° C. until use. Anhydrous MgCl2 is added to the phosphate buffer on the day of assay for a final concentration of 10 mM (95 mg/100 ml). The buffer is flushed with N2 before use.
Non-radiolabeled FPP is diluted to 50 μM (100 μl 10 mM cold FPP+19.9 ml phosphate buffer). Then, 14 μl (20×10^6 dpm) of ^3 H-FPP (0.5 mCi/ml, 0.011 mg/ml) is added. 200 μl of this mixture is added per assay tube for a final reaction concentration of 10 μM FPP (~200,000 dpm/assay tube).
37.5 mg of β-NADPH is added to 9 ml assay buffer for a 5 mM concentration of β-NADPH. The mixture is vortexed and 100 μl of this solution is added to each tube for a final assay concentration of 0.5 mM β-NADPH.
75 gm of KOH is dissolved in 500 ml of denatured ethanol for a 15% solution and stored at 0° C. until use. 1 ml of this solution is added per tube to terminate the reaction.
IV. Experimental Procedure
Immediately following decapitation, livers are removed one at a time from four rats. The livers are combined and weighed in a tared beaker. Assay buffer is added equal to three times the liver weight. The liver is first homogenized with a blender for thirty seconds, and then by a motor driven teflon pestle at a speed of 2.5. During homogenization, the liver is kept on ice. When the liver is fully homogenized, the homogenate is centrifuged at 10,000 g for 30 min at 4° C. in 50 ml capacity centrifuge tubes. The mitochondrial pellet is discarded and the supernatant is filtered through a layer of gauze moistened with a little buffer. This supernatant is recentrifuged at 105,000 g for one hour at 0° C. in an ultracentrifuge in 25 ml capacity ultracentrifuge tubes. […]
For orientation: Microsomes from liver hold many membrane-bound enzymes, among them those of drug oxidation.
`O=P(O)(O)C(O)(CCNCC1CCCCCC1)P(=O)(O)O` displayed an IC50 of 1.46 µM. In other words, the single-digit micromolar range.
On the same count and under the same terms, next, `O=P(O)(O)C(O)(CCNC1CCc2ccccc21)P(=O)(O)O` (centres unmarked): 0.06 µM; `O=P(O)(O)C(O)(CCNC1C2CC3CC(C2)CC1C3)P(=O)(O)O` (centres unmarked): 0.44 µM.
On the same count and under the same terms, next, `O=P(O)(O)C(O)(CCNC1CCCc2ccccc21)P(=O)(O)O` (centres unmarked): 0.13 µM; `O=P(O)(O)C(O)(CCN1CCC2(CCCCC2)CC1)P(=O)(O)O`: 0.39 µM.
Molecule `O=P(O)(O)C(O)(CCN1CCCCCC1)P(=O)(O)O` came in with an IC50 of 0.13 µM.
Take `O=P(O)(O)C(O)(CCN1CCCC2CCCCC21)P(=O)(O)O` (centres unmarked): half-maximal inhibition (IC50) was put at 0.019 µM.
For `O=P(O)(O)C(O)(CCNC1CC2CCC1C2)P(=O)(O)O` (centres unmarked), the IC50 came out at 0.6 µM.
Molecule `O=P(O)(O)C(O)(CCN1CCCCC1)P(=O)(O)O` showed an IC50 of 0.72 µM.
Molecule `O=P(O)(O)C(O)(CCNC1CCN(Cc2ccccc2)CC1)P(=O)(O)O` yielded an IC50 of 2.3 µM. This IC50 is about 3.2-fold higher than that of the molecule before.
Still for that read-out and setting: next, `O=P(O)(O)C(O)(CCN1CCC(c2ccccc2)CC1)P(=O)(O)O`: 0.37 µM.
The same measure, in the same setting: next, `O=P(O)(O)C(O)(CCN1CC2CCC(CC2)C1)P(=O)(O)O`: 0.016 µM; `CC1(C)CC2CC(C)(CN2CCC(O)(P(=O)(O)O)P(=O)(O)O)C1` (centres unmarked): 5.06 µM.

The next assay deals with 1,4-condensation between isopentenyl diphosphate and geranyl diphosphate.
Experiment: not given
The conditions noted are these: J. Am. Chem. Soc., 1987, 109, 5544; cited from earlier work.
As for `C=C(C)CCCP(=O)(O)CP(=O)(O)O`, the “inhibition of the 1,4-condensation (in words)” value is “competitive inhibitors”.
